# Data as given in patent US10308686B2, “Gamma-AApeptides with potent and broad-spectrum antimicrobial activity” (priority 2012, dated 2019).
# Like-named read-outs stand apart in the source and are kept apart here.
# Experiments:
# [1] = tested on: human red blood cells (hRBC's); assay: Hemolysis assay; type: cell-based
# Method in brief: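 Washed human RBCs (K2 EDTA) as 5% v/v suspension in PBS, mixed 1:1 with two-fold serial peptide dilutions (250–1.6 μg/ml, or 1 mg/ml–6.3 μg/ml for lipidated γ-AApeptides) in PBS; 1 h at 37 °C. Supernatant OD 360 nm, normalised to PBS (0%) and 0.2% Triton-X-100 (100%); H50 = concentration giving 50% hemolysis.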
# [2] = tested on: methicillin-resistant S. aureus (ATCC 33592)
# [3] = tested on: vancomycin-resistant E. faecalis (ATCC 700802)
# [4] = tested on: K. pneumoniae (ATCC 13383)
# [5] = tested on: methicillin-resistant S. aureus (MRSA, USA100 lineage); conditions: USA100
# [6] = tested on: multi-drug resistant S. epidermidis (RP62A)
# [7] = tested on: multi-drug resistant P. aeruginosa ATCC 27853
Compound,"MIC, B. subtilis (B. subtilis (BR151))","MIC, K. pneumoniae (causing pneumonia) [4]","MIC, Fungi C. albicans (C. albicans (ATCC 10231); ATCC 10231, 48 h)","MIC, E. coli (E. coli (JM109))",Hemolysis (H50) [1],"MIC, B. anthracis (lethal bioweapon) (B. anthracis; Table 1)","MIC, S. aureus (methicillin-resistant) ([2]; Table 1)","MIC, E. faecalis (vancomycin-resistant) ([3]; Table 1)","MIC, S. epidermidis (multi-drug resistant) ([6]; Table 1)","MIC, S. aureus (methicillin-resistant) ([2]; Table 3)","MIC, E. faecalis (vancomycin-resistant) ([3]; Table 3)","MIC, Fungi C. albicans (C. albicans (ATCC 10231); ATCC 10231)","MIC, S. epidermidis (multi-drug resistant) ([6]; Table 3)",further results
"NCCCC[C@@H](C(N)=O)N(CCNC(=O)[C@H](CCCCN)N(CCNC(=O)[C@H](CCCCN)N(CCNC(=O)[C@H](CCCCN)N(CCNC(=O)[C@H](CCCCN)N(CCNC(=O)[C@H](CCCCN)N(CCNC(=O)[C@H](CCCCN)N(CCN)C(=O)CCc1ccccc1)C(=O)CCc1ccccc1)C(=O)CCc1ccccc1)C(=O)CCc1ccccc1)C(=O)CCc1ccccc1)C(=O)CCc1ccccc1)C(=O)CCc1ccccc1 [α1, reference compound]",2 µg/mL,>100 µg/mL,20 to 30 µg/mL,4.5 µg/mL,,,,,,,,,,"Hemolysis (H50) ([1]; Table 1, concentration at which 50% hemolysis was observed): >500 µg/mL; MIC, B. anthracis (lethal bioweapon) (B. anthracis): >100 µg/mL; MIC, S. aureus (methicillin-resistant) ([2]; ATCC 33592): 75 µg/mL; MIC, E. faecalis (vancomycin-resistant) ([3]; ATCC 700802): 75 µg/mL; MIC, MRSA USA100 (leading hospital-associated strain) [5]: >100 µg/mL; MIC, S. epidermidis (multi-drug resistant) ([6]; multi-drug resistant (RP62A)): 10 µg/mL"
NCCCC[C@H](N)CN(CC(=O)N[C@@H](CCCCN)CN(CC(=O)N[C@@H](CCCCN)CN(CC(=O)N[C@@H](CCCCN)CN(CC(=O)N[C@@H](CCCCN)CN(CC(=O)N[C@@H](CCCCN)CN(CC(=O)N[C@@H](CCCCN)CN(CC(N)=O)C(=O)CCc1ccccc1)C(=O)CCc1ccccc1)C(=O)CCc1ccccc1)C(=O)CCc1ccccc1)C(=O)CCc1ccccc1)C(=O)CCc1ccccc1)C(=O)CCc1ccccc1 [γ3],2.5 µg/mL,>100 µg/mL,12.5 to 25 µg/mL,2.5 to 5 µg/mL,>500 µg/mL,25 to 50 µg/mL,12.5 to 25 µg/mL,12.5 to 25 µg/mL,6.25 to 12.5 µg/mL,,,,,
CC(C)C[C@@H](CN(CC(=O)N[C@@H](CCCCN)CN(CC(=O)N[C@@H](CCCCN)CN(CC(=O)N[C@@H](CCCCN)CN(CC(N)=O)C(=O)CCc1ccccc1)C(=O)CCc1ccccc1)C(=O)CCc1ccccc1)C(=O)CCc1ccccc1)NC(=O)CN(C[C@H](CCCCN)NC(=O)CN(C[C@H](CCCCN)NC(=O)CN(C[C@@H](N)CCCCN)C(=O)CCc1ccccc1)C(=O)CCc1ccccc1)C(=O)CCc1ccccc1 [γ4],2.5 µg/mL,,12.5 to 25 µg/mL,2.5 to 5 µg/mL,>500 µg/mL,25 to 50 µg/mL,3.1 to 6.25 µg/mL,12.5 to 25 µg/mL,3.1 to 6.25 µg/mL,,,,,
CC(C)CCC(=O)N1CC(=O)N[C@@H](Cc2ccccc2)CN(C(=O)CCC(C)C)CC(=O)N[C@@H](Cc2ccccc2)CN(C(=O)CCC(C)C)CC(=O)N[C@@H](CCCCN)CN(C(=O)CCc2ccccc2)CC(=O)N[C@@H](CCCCN)CN(C(=O)CCc2ccccc2)CC(=O)N[C@@H](CCCCN)CN(C(=O)CCc2ccccc2)CC(=O)N[C@@H](Cc2ccccc2)CN(CC(N)=O)C(=O)CCC(=O)N[C@@H](Cc2ccccc2)C1 [γAA6],2 µg/mL,10 µg/mL,,25 to 50 µg/mL,300 µg/mL,,,,,3 µg/mL,5 µg/mL,4 µg/mL,2 µg/mL,"MIC, P. aeruginosa ([7]; Table 3): 10 µg/mL"
CCCCCCCC/C=C\CCCCCCCC(=O)N[C@@H](CCCCN)CN(CC(N)=O)C(=O)CCCN [γAA7],2 µg/mL,50 µg/mL,,2.5 µg/mL,>500 µg/mL,,,,,5 µg/mL,2.5 µg/mL,1.5 µg/mL,1 µg/mL,"MIC, P. aeruginosa ([7]; ATCC 27853): 2.5 µg/mL"
